Results as given in ChEMBL document CHEMBL1157838, “Cryptosphaerolide, a cytotoxic Mcl-1 inhibitor from a marine-derived ascomycete related to the genus Cryptosphaeria” (J Nat Prod, 2010).

Assays:
[1] = target: Induced myeloid leukemia cell differentiation protein Mcl-1 (Homo sapiens, UniProt Q07820); test: Inhibition of Mcl1 protein by Mcl1/Bak fluorescence resonance assay
HCT-116 = test: Cytotoxicity against human HCT116 cells after 72 hrs by MTS/PMS assay; format: functional, cell-based; conditions: HCT-116, 72 h

Sequence of Induced myeloid leukemia cell differentiation protein Mcl-1 (Q07820 whole entry): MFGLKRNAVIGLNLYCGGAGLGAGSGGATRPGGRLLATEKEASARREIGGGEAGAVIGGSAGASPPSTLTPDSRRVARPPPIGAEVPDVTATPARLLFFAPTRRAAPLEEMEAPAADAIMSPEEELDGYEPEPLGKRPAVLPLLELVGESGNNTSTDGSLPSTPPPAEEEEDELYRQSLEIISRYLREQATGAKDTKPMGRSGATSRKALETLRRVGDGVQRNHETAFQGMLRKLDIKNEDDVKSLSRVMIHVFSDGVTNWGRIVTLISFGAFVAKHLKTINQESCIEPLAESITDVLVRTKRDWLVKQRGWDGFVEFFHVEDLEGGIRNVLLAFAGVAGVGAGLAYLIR

| SMILES | IC50 [1] [µM] | IC50 (HCT-116) [µM] |
| --- | --- | --- |
| C=C1CO[C@@]2(OC)[C@H]3O[C@]34[C@H](OC(=O)C(O)(CO)CC(C)CC(C)CC)CC[C@H](C)[C@@]4(C)C[C@@H]12 (stereo partly drawn) | 12.5 |  |
| C=C1CO[C@@]2(O)[C@H]3O[C@]34[C@H](OC(=O)C(O)(CO)CC(C)CC(C)CC)CC[C@H](C)[C@@]4(C)C[C@@H]12 (stereo partly drawn) [CRYPTOSPHAEROLIDE] | 11.4 | 4.5 |
